Patent EP0409499A2, “Pharmaceutical compositions” (BRITISH TECHNOLOGY GROUP LIMITED, priority 1989, dated 1991)

Experiments:
growing rats = assay: Cardioprotective effect against the toxicity of doxorubicin (heart rate and cardiac output in rats); format: in vivo; conditions: relative to saline + saline control
Procedure: The following compounds were selected to be tested for their cardioprotetive effect against the toxicity of doxorubicin. The compounds tested were: 1,3-bis(3,5-dioxopiperazin-1-yl)-propane 1,2-bis(2-methyl-3,5-dioxopiperazin-1-yl)-ethane 1,2-bis(3,5-dioxopiperazin-1-yl)-butane.
Groups of growing rats were injected intra-peritoneally (i.p.) with 100 mg/kg or 400 mg/kg body weight of the compound. After 1 hour, doxorubicin solution was injected intravenously (i.v.) at a concentration of 4 mg/kg body weight. Other groups of rats were injected with saline (i.p.) followed after 1 hour by saline (i.v.) or with saline (i.p.) followed after 1 hour by doxorubicin solution (i.v.) as controls. The cardiotoxicity of doxorubicin and the protection supplied by the compounds was assessed by measuring the heart rate and cardiac output relative to the saline + saline control. Cardiac output was measured by injecting ^99mTc into the heart and measuring the rate at which the isotope was cleared from the heart. Heart rate was measured in the standard manner.
The results are shown in the Table below from which it will be seen that each of the compounds results in an improvement in cardiac output and heart rate as compared with the depressed values which occur when only doxorubicin is used. TABLE

[1] = result in words, Herman et al, Adv. Pharmacol. Chemother. 1982, 19, 249; cited from earlier work
[2] = result in words, Herman et al, Res. Commun. Chem. Pathol. Pharmacol. 1985, 48, 39; cited from earlier work
[3] = saline i.p., 1 hour later doxorubicin 4 mg/kg i.v. alone
[4] = compound 100 mg/kg i.p., 1 hour later doxorubicin 4 mg/kg i.v.
[5] = compound 100 mg/kg i.p., 1 hour later doxorubicin 4 mg/kg i.v., 99mTc clearance from the heart

In the case of `COc1cccc2c1C(=O)c1c(O)c3c(c(O)c1C2=O)C[C@@](O)(C(=O)CO)C[C@@H]3O[C@H]1C[C@H](N)[C@H](O)[C@H](C)O1` [doxorubicin, reference compound], the “Relative Cardiac Output” value (growing rats; [3]) is reported as 0.41 ± 0.04 and the “Relative Heart Rate” value (growing rats; [3]) is reported as 0.65 ± 0.19.
For `CCC(CN1CC(=O)NC(=O)C1)N1CC(=O)NC(=O)C1` (racemic) [1,2-bis(3,5-dioxopiperazin-1-yl)-butane, dl-1,2-bis(3,5-dioxopiperazin-1-yl)-butane], the “Relative Heart Rate” value (growing rats; [4]) was 0.98 ± 0.03, the “Relative Cardiac Output” value (growing rats; [5]) was 0.70 ± 0.05 and the “Relative Heart Rate” value (growing rats; compound 400 mg/kg i.p., 1 hour later doxorubicin 4 mg/kg i.v.) was 0.92 ± 0.04. The “Relative Cardiac Output” value (growing rats; compound 400 mg/kg i.p., 1 hour later doxorubicin 4 mg/kg i.v., 99mTc clearance from the heart) was 0.67 ± 0.05.
With `O=C1CN(CCCN2CC(=O)NC(=O)C2)CC(=O)N1` [1,3-bis(3,5-dioxopiperazin-1-yl)-propane] the “Relative Heart Rate” value (growing rats; [4]) was 0.81 ± 0.12 and the “Relative Cardiac Output” value (growing rats; [5]) was 0.56 ± 0.06.
For `CC1C(=O)NC(=O)CN1CCN1CC(=O)NC(=O)C1C` (stereo not drawn) [1,2-bis(2-methyl-3,5-dioxopiperazin-1-yl)-ethane], the “Relative Heart Rate” value (growing rats; [4]) was 0.99 ± 0.03 and the “Relative Cardiac Output” value (growing rats; [5]) was 0.62 ± 0.05.
For `CC(CN1CC(=O)NC(=O)C1)N1CC(=O)NC(=O)C1` (stereo not drawn) [ICRF 159], the “reducing high dose daunorubicin toxicity versus doxorubicin toxicity” value [1] is listed as “consistently more effective in reducing high dose daunorubicin toxicity than doxorubicin toxicity”.
In the case of `O=C1CN(CCN2CC(=O)N(CN3CCOCC3)C(=O)C2)CC(=O)N1CN1CCOCC1` [bimolane], the “protective effect against acute daunorubicin toxicity” value [2] is given as “give protection against the lethal effects of daunorubicin”.
